Among the data in patent US20030212088A1, “Methods and compositions for treating, preventing or delaying onset of a neoplasm” (priority 2002, published 2003) are serum IGF-I concentration (mean ± standard error) values, retold here.

Where a name gives a salt, the structure may show the parent alone.

This test deals with Mouse serum IGF-1. Kind of test: Serum IGF-I radioimmunoassay in CT-26 tumor-bearing mice. The settings on record: serum collected at sacrifice (day 24); Pegvisomant 5.0 mg/day s.c.; Irinotecan 100 mg/kg on post-inoculation days 7, 14, 21. The test is classed as in vivo, BALB/c mice.

Procedure: CT-26 cells (mouse colon carcinoma) are grown in DMEM with 10% fetal bovine serum until the cells are approximately 50% confluent. Trypsin is used to lift adherent cells from the surface of tissue culture flask. The cells are then washed and suspended in Hank's buffered saline solution. BALB/c mice (Jackson Laboratories, Bar Harbor, Me.), 5-8 weeks of age, are used in this example. Initially, the spleen is mobilized using a left flank incision. Direct splenic injections of CT-26 cells is performed (1×10^4 viable cells, 0.05 ml total volume). Wound clips are used to close the incision. This is a syngenic colon cancer model so the host animals are not immunocompromised.
Injections are administered on the flank opposite the side of the wound clips from the splenic injection using a 25-gauge needle on a tuberculin syringe.
Mice are sacrificed on day 24. […] Treatment groups are compared using a standard t-test.
Mouse serum IGF-1 is measured by radioimmunoassay (RIA) after acid-ethanol extraction. Briefly, the serum/extraction mixture is incubated at room temperature for 2 hours, centrifuged, and the supernatant is diluted 1:200 for analysis. IGF-I concentrations are the measured by RIA using a polyclonal rabbit antibody (Nicohls Institute, San Juan Capistrano, Calif.). The assay standards are created with recombinant human IGF-I (Amersham International, Bucks, UK).

`CCc1c2c(nc3ccc(OC(=O)N4CCC(N5CCCCC5)CC4)cc13)-c1cc3c(c(=O)n1C2)COC(=O)[C@]3(O)CC` [Irinotecan, (4S)-4,11-diethyl-4-hydroxy-9-((4-piperidinopiperidino)carbonyloxy)-1H-pyrano (3′,4′:6,7)indolizino(1,2-b)quinoline-3,14(4H,12H) dione hydrochloride] had a serum IGF-I concentration (mean ± standard error) of 129 ± 5.9 µg/L.
The molecule Pegvisomant showed a serum IGF-I concentration (mean ± standard error) of 50 ± 5.3 µg/L.
